Measured values from US12509429B2, “Hydroxybenzamide derivatives and methods of use in treating diabetes” (THE BOARD OF REGENTS OF THE UNIVERSITY OF OKLAHOMA, priority 2022, dated 2025).
Like-named read-outs stand apart in the source and are kept apart here.

Columns and labels:
[1] = tested on: INS-1 cells; assay: Cell viability assay: protection of INS-1 cells from tunicamycin (Tm)-induced loss of viability (CellTiter-Glo, intracellular ATP); type: cell-based, rat; conditions: for Emax / EC50: Rattus norvegicus; for Emax: % rescue from Tm (0.15 μg/mL)-induced reduction of INS-1 cell viability (intracellular ATP), Tm alone 0%, DMSO without Tm 100%, 72 h, read-out: Maximum % of Protection; for EC50: INS-1 cell viability, Tm 0.15 μg/mL, ten 2-fold serial titration points, GraphPad Prism
Procedure: INS-1 cells were resuspended in RPMI 1640 medium containing 10% FBS and seeded at 5×10^3 cells/well in a 384-well plate. After overnight 24 h incubation, compounds were added to the wells at the indicated concentration using a pin-transfer robot (PerkinElmer). Tm in RPMI 1640 medium containing 10% FBS was then added at a final concentration of 0.15 μg/mL. After 72 h, the medium was removed and 20 μL of CellTiter-Glo reagent (Promega) was added. Luminescence was measured 10 min later using a Synergy Neo2 plate reader (Biotek).
Hydroxy benzamide (HBA) derivatives were synthesized based on various scaffolds and evaluated for their viability of rat INS-1 β cells in the presence of tunicamycin (Tm), a potent ER stress inducer that inhibits N-linked glycosylation of proteins. The maximum activities and the concentrations that reach half-maximal activity (EC50) of the compounds were evaluated by the degree of increase in viability of INS-1 cells co-treated with the compounds in the presence of Tm compared with Tm treatment alone.

[2] = tested on: INS-1 cells; conditions: earlier work; protection of β-cell survival against ER stress; cited from earlier work

SMILES	Emax ([1]; INS1)	EC50 ([1]; INS1)	further results
COc1cccc(C(=O)NCc2ccc(C(F)(F)F)cc2)c1 [Compound 3j, 3-Methoxy-N-(4-(trifluoromethyl)benzyl)benzamide]	71%	25 µM	–
CCc1ccc(C(=O)NCc2cccc(C(F)(F)F)c2)cc1 [Compound 3b, 4-Ethyl-N-(3-(trifluoromethyl)benzyl)benzamide]	43%	4.4 µM	β-cell protective activity (in words) ([1]; INS-1 cells with Tm): poorer β-cell protective activity
O=C(NCc1ccc(C(F)(F)F)cc1)c1cccc(O)c1O [Compound 3g, 2,3-Dihydroxy-N-(4-(trifluoromethyl)benzyl)benzamide]	100%	3.1 µM	–
Oc1cccc(-c2ncc(-c3ccc(C(F)(F)F)cc3)[nH]2)c1O [Compound 1a, 3-(5-(4-(Trifluoromethyl)phenyl)-1H-imidazol-2-yl)benzene-1,2-diol]	14%	0.26 µM	Toxicity at rising compound concentration (in words) ([1]; INS-1 cells with Tm): became toxic when the compound concentration arose; β-cell protective activity (in words) ([1]; INS-1 cells with Tm): some β-cell protective activity at sub-micro molar concentrations
O=C(NCc1ccc(C(F)(F)F)cc1)c1cccc(OCc2cccc(C(F)(F)F)c2)c1 [Compound 3n, N-(4-(Trifluoromethyl)benzyl)-3-((3-(trifluoromethyl)benzyl)oxy)benzamide]	58%	6.3 µM	β-cell protective activity (in words) ([1]; INS-1 cells with Tm): markedly diminished activity
O=C(NCc1ccc(C(F)(F)F)cc1)c1cccc(OCC2CCCCC2)c1 [Compound 3k, 3-(Cyclohexylmethoxy)-N-(4-(trifluoromethyl)benzyl)benzamide]	100%	0.72 µM	–
COc1cc(CNC(=O)c2cccc(O)c2)ccc1O [Compound 3s, 3-Hydroxy-N-(4-hydroxy-3-methoxybenzyl)benzamide]	57%	28.7 µM	–
CC(C)c1ccc(CNC(=O)c2cccc(O)c2)cc1 [Compound 3o, 3-Hydroxy-N-(4-isopropylbenzyl)benzamide]	82%	1.7 µM	–
COc1cccc(NC(=O)NCc2ccc(C(F)(F)F)cc2)c1 [Compound 5b, 1-(3-Methoxyphenyl)-3-(4-(trifluoromethyl)benzyl)urea]	94%	1.6 µM	–
CN(C)c1ccc(CNC(=O)c2cccc(O)c2)cc1 [Compound 3p, N-(4-(Dimethylamino)benzyl)-3-hydroxybenzamide]	43%	7.1 µM	–
O=C(NCc1cccc(O)c1)c1cccc(O)c1 [Compound 3q, 3-Hydroxy-N-(3-hydroxybenzyl)benzamide]	22%	18.3 µM	–
O=C(NCc1ccc(C(F)(F)F)cc1)c1ccc(O)c(O)c1 [Compound 3f, 3,4-Dihydroxy-N-(4-(trifluoromethyl)benzyl)benzamide]	100%	2.2 µM	Concentration at which maximal protection is reached ([1]; text of b115, unit printed as PM, unit of the source corrected): 10 µM
O=C(NCc1cccc(C(F)(F)F)c1)c1ccc(O)c(O)c1 [Compound 3d, 3,4-Dihydroxy-N-(3-(trifluoromethyl)benzyl)benzamide]	51%	20.5 µM	–
O=C(NCc1cccc(C(F)(F)F)c1)c1cccc(O)c1 [Compound 3c, 3-Hydroxy-N-(3-(trifluoromethyl)benzyl)benzamide]	37%	9.9 µM	–
COc1ccc(CNc2ncc(-c3ccccc3OC)[nH]2)cc1 [Compound 2b, N-(4-methoxybenzyl)-5-(2-methoxyphenyl)-1H-imidazol-2-amine]	9%	0.021 µM	β-cell protective activity (in words) ([1]; INS-1 cells with Tm): reduced the protecting activity
COc1cccc(COc2cccc(C(=O)NCc3ccc(C(F)(F)F)cc3)c2)c1 [Compound 3m, 3-((3-Methoxybenzyl)oxy)-N-(4-(trifluoromethyl)benzyl)benzamide]	81%	4.1 µM	–
O=C(NCc1ccc(C(F)(F)F)cc1)c1ccc(O)cc1 [Compound 3h, 4-Hydroxy-N-(4-(trifluoromethyl)benzyl)benzamide]	100%	0.27 µM	–
Cc1c(Cl)cccc1C(=O)NCc1cccc(C(F)(F)F)c1 [Compound 3a, 3-Chloro-2-methyl-N-(3-(trifluoromethyl)benzyl)benzamide]	83%	10 µM	–
COc1ccc(CNc2ncc(-c3ccc(C(F)(F)F)cc3)[nH]2)cc1 [Compound 2a, N-(4-methoxybenzyl)-5-(4-(trifluoromethyl)phenyl)-1H-imidazol-2-amine]	18%	0.05 µM	–
COc1ccc(CNC(=O)c2cccc(O)c2)cc1 [Compound 3r, 3-Hydroxy-N-(4-methoxybenzyl)benzamide]	65%	21.3 µM	–
COc1cc(C(=O)NCc2cccc(C(F)(F)F)c2)ccc1O [Compound 3e, 4-Hydroxy-3-methoxy-N-(3-(trifluoromethyl)benzyl)benzamide]	100%	3.1 µM	–
COc1ccc(-c2ncc(-c3ccc(C(F)(F)F)cc3)[nH]2)cc1 [Compound 1c, 2-(4-Methoxyphenyl)-5-(4-(trifluoromethyl)phenyl)-1H-imidazole]	17%	0.21 µM	β-cell protective activity (in words) ([1]; INS-1 cells with Tm): no improvement
O=C(NCc1ccc(C(F)(F)F)cc1)Nc1cccc(O)c1 [Compound 5a, 1-(3-Hydroxyphenyl)-3-(4-(trifluoromethyl)benzyl)urea]	65%	2.6 µM	–
O=C(NCc1ccc(C(F)(F)F)cc1)c1cccc(OCC2CCNCC2)c1 [Compound 3l, 3-(Piperidin-4-ylmethoxy)-N-(4-(trifluoromethyl)benzyl)benzamide]	81%	2.1 µM	–
COc1cc(CNC(=O)c2ccc(O)c(OC)c2)ccc1O [Compound 3t, 4-Hydroxy-N-(4-hydroxy-3-methoxybenzyl)-3-methoxybenzamide]	55%	29.1 µM	β-cell protective activity (in words) ([1]; INS-1 cells with Tm): equally poor β-cell protective activity
O=C(Cc1cccc(O)c1)NCc1ccc(C(F)(F)F)cc1 [Compound 4a, 2-(3-Hydroxyphenyl)-N-(4-(trifluoromethyl)benzyl)acetamide]	–	3.5 µM	Emax ([1]; INS1, 72 h): 32%
COc1cc(-c2ncc(-c3ccc(C(F)(F)F)cc3)[nH]2)ccc1O [Compound 1b, 2-Methoxy-4-(5-(4-(trifluoromethyl)phenyl)-1H-imidazol-2-yl)phenol]	7%	0.26 µM	β-cell protective activity (in words) ([1]; INS-1 cells with Tm): no improvement
Cc1ccc(C)c(NC(=O)c2nnn(-c3cccc(Cl)c3C)c2C)c1 [Compound 1, 1-(3-chloro-2-methylphenyl)-N-(2,5-dimethylphenyl)-5-methyl-1H-1,2,3-triazole-4-carboxamide, reference compound]	87%	2.8 µM	maximal activity [2]: 87%
